Assay results reported in US8822447B2, “Indazole compounds useful as ketohexokinase inhibitors” (Janssen Pharmaceutica NV, priority 2010, dated 2014).
Counter-ions that a name gives are not always drawn.

The compounds below were run against KHK (Homo sapiens (Human), UniProt P50053) (assay: In Vitro KHK Enzyme Assay (HTMS)). Conditions: 200 μM fructose, 100 μM ATP, 2 nM KHK, 60 min at 25° C.; Fructose-1-P detected by high throughput mass spectrometry.
Assay type: biochemical
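Note: primary screen measuring inhibition of KHK-catalysed conversion of D-fructose into fructose 1-phosphate.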
Protocol: An enzymatic assay was developed to measure KHK-mediated conversion of D-fructose to Fructose-1-P (F-1-P) using High Throughput Mass Spectroscopy (HTMS) as a means of product detection. This assay served as a primary screen to evaluate the ability to inhibit KHK enzyme activity and it has been adapted to high throughput mass spectrometry (HTMS, BioTrove RapidFire™) format for higher throughput.
The compounds to be tested were dosed in 12-points concentration from 511 μM to 0.5 μM. […] The assay was carried out in 384-well plate format.

Sequence of KHK (P50053 whole entry): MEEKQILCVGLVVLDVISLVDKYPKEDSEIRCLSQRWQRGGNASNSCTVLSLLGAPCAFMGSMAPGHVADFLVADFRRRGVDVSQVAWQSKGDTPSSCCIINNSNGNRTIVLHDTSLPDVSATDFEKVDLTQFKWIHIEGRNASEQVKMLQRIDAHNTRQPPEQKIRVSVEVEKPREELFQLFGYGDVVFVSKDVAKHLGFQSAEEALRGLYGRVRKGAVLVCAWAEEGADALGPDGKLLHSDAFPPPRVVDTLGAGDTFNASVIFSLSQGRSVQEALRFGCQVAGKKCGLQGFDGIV

First: COc1nn(-c2ccccc2)c2cc(NC(=O)c3ccc4[nH]cnc4c3)ccc12 [Compound 80, N-(3-methoxy-1-phenyl-1H-indazol-6-yl)-1H-benzo[d]imidazole-5-carboxamide]
Second: COc1nn(-c2ccccc2)c2cc(N3CCN(C4CCNCC4)C3=O)ccc12 [Compound 81, 1-(3-Methoxy-1-phenyl-1H-indazol-6-yl)-3-(piperidin-4-yl)imidazolidin-2-one hydrochloride]
The IC50 of the first is 6.7-fold lower: 4500 nM for the first, 30000 nM for the second.

Going from `CCc1nn(-c2ccccc2)c2nc(N3CCN(C4CNC4)CC3)ncc12` [Compound 82, 6-(4-Azetidin-3-yl-piperazin-1-yl)-3-ethyl-1-phenyl-1H-pyrazolo[3,4-d]pyrimidine] to `CCc1nn(-c2ccccc2)c2nc(N3CCN(c4cccnc4)CC3)ncc12` [Compound 83, 3-Ethyl-1-phenyl-6-(4-(pyridin-3-yl)piperazin-1-yl)-1H-pyrazolo[3,4-d]pyrimidine trifluoroacetic acid], the IC50 rises from 23000 nM to over 30000 nM. The first is the more potent here.

First: Cc1nn(-c2ccccc2)c2nc(C3CCN(c4cccnc4)CC3)nc(O)c12 [Compound 84, 3-Methyl-1-phenyl-6-(3,4,5,6-tetrahydro-2H-[1,3′]bipyridinyl-4-yl)-1H-pyrazolo[3,4-d]pyrimidin-4-ol]
Second: CCc1nn(-c2ccccc2)c2nc(C3CCN(c4cccnc4)CC3)nc(O)c12 [Compound 93, 3-Ethyl-1-phenyl-6-(3,4,5,6-tetrahydro-2H-[1,3′]bipyridinyl-4-yl)-1H-pyrazolo[3,4-d]pyrimidin-4-ol]
The IC50 of the first is higher: over 30000 nM for the first, 7900 nM for the second.

Compared with `Cc1nn(-c2ccccc2)c2nc(C3CCCN(C4CNC4)C3)nc(O)c12` (centres unmarked) [Compound 85, 6-(1-Azetidin-3-yl-piperidin-3-yl)-3-methyl-1-phenyl-1H-pyrazolo[3,4-d]pyrimidin-4-ol], `Cc1nn(-c2ccccc2)c2nc(C3CCN(C4CCNC4)CC3)nc(O)c12` (centres unmarked) [Compound 88, 3-Methyl-1-phenyl-6-(1-pyrrolidin-3-yl-piperidin-4-yl)-1H-pyrazolo[3,4-d]pyrimidin-4-ol hydrochloride] is 4.9-fold lower in IC50: 7450 nM for the first, 1510 nM for the second.

Going from `Cc1nn(-c2ccccc2)c2nc(C3CCNCC3)nc(O)c12` [Compound 86, 3-Methyl-1-phenyl-6-piperidin-4-yl-1H-pyrazolo[3,4-d]pyrimidin-4-ol hydrochloride] to `CCc1nn(-c2ccccc2)c2nc(C3CCNCC3)nc(O)c12` [Compound 91, 3-Ethyl-1-phenyl-6-piperidin-4-yl-1H-pyrazolo[3,4-d]pyrimidin-4-ol hydrochloride], the IC50 falls from 6100 nM to 2400 nM (2.5-fold). The second is the more potent here.

First: Cc1nn(-c2ccccc2)c2nc(C3CCN(C(=O)C4CCNCC4)CC3)nc(O)c12 [Compound 87, [4-(4-Hydroxy-3-methyl-1-phenyl-1H-pyrazolo[3,4-d]pyrimidin-6-yl)-piperidin-1-yl]-piperidin-4-yl-methanone hydrochloride]
Second: CCc1nn(-c2ccccc2)c2nc(C3CCN(C(=O)C4CCNCC4)CC3)nc(O)c12 [Compound 96, [4-(3-Ethyl-4-hydroxy-1-phenyl-1H-pyrazolo[3,4-d]pyrimidin-6-yl)-piperidin-1-yl]-piperidin-4-yl-methanone hydrochloride]
The IC50 of the first is higher: over 30000 nM for the first, 30000 nM for the second. The second is the more potent here.

`Cc1nn(-c2ccccc2)c2nc(C3CCN(C4CCNCC4)CC3)nc(O)c12` [Compound 89, 6-[1,4′]Bipiperidinyl-4-yl-3-methyl-1-phenyl-1H-pyrazolo[3,4-d]pyrimidin-4-ol hydrochloride] and `CCc1nn(-c2ccccc2)c2nc(C3CCN(C4CCNCC4)CC3)nc(O)c12` [Compound 95, 6-[1,4′]Bipiperidinyl-4-yl-3-ethyl-1-phenyl-1H-pyrazolo[3,4-d]pyrimidin-4-ol hydrochloride] are within 1.5-fold of each other in IC50: 14000 nM for the first, 11500 nM for the second.

First: Cc1nn(-c2ccccc2)c2nc(CC3CCN(C4CNC4)CC3)nc(O)c12 [Compound 90, 6-(1-Azetidin-3-yl-piperidin-4-ylmethyl)-3-methyl-1-phenyl-1H-pyrazolo[3,4-d]pyrimidin-4-ol]
Second: CCc1nn(-c2ccccc2)c2nc(C3CCN(C4CCNC4)CC3)nc(O)c12 (centres unmarked) [Compound 94, 3-Ethyl-1-phenyl-6-(1-pyrrolidin-3-yl-piperidin-4-yl)-1H-pyrazolo[3,4-d]pyrimidin-4-ol hydrochloride]
The IC50 of the first is higher: over 30000 nM for the first, 5270 nM for the second.

Compared with `CCc1nn(-c2ccccc2)c2nc(C3CCN(c4ccncc4)CC3)nc(O)c12` [Compound 92, 3-Ethyl-1-phenyl-6-(3,4,5,6-tetrahydro-2H-[1,4′]bipyridinyl-4-yl)-1H-pyrazolo[3,4-d]pyrimidin-4-ol], `CCOc1cc(-c2ccc(N3CCN(C)CC3)cc2)nc2c1c(CC)nn2-c1ccccc1` [Compound 103, 4-Ethoxy-3-ethyl-6-[4-(4-methyl-piperazin-1-yl)-phenyl]-1-phenyl-1H-pyrazolo[3,4-b]pyridine] is 2.5-fold lower in IC50: 1670 nM for the first, 660 nM for the second. The second is the more potent here.

Going from `Cc1nn(-c2ccccc2)c2nc(-c3ccc(N4CCNCC4)cc3)cc(O)c12` [Compound 97, 3-Methyl-1-phenyl-6-(4-piperazin-1-yl-phenyl)-1H-pyrazolo[3,4-b]pyridin-4-ol] to `COc1cc(-c2ccc(N3CCNCC3)cc2)nc2c1c(C)nn2-c1ccccc1` [Compound 99, 4-Methoxy-3-methyl-1-phenyl-6-(4-piperazin-1-yl-phenyl)-1H-pyrazolo[3,4-b]pyridine], the IC50 falls from 2710 nM to 600 nM (4.5-fold). The second is the more potent here.

Going from `CCc1nn(-c2ccccc2)c2nc(-c3ccc(N4CC(C)NC(C)C4)cc3)cc(OC)c12` (centres unmarked) [Compound 98, 6-[4-(3,5-Dimethyl-piperazin-1-yl)-phenyl]-3-ethyl-4-methoxy-1-phenyl-1H-pyrazolo[3,4-b]pyridine] to `CCOc1cc(-c2ccc(N3CC(C)NC(C)C3)cc2)nc2c1c(CC)nn2-c1ccccc1` (centres unmarked) [Compound 104, 6-[4-(3,5-Dimethyl-piperazin-1-yl)-phenyl]-4-ethoxy-3-ethyl-1-phenyl-1H-pyrazolo[3,4-b]pyridine], the IC50 rises from 300 nM to 14700 nM (49-fold).

Going from `CCc1nn(-c2ccccc2)c2nc(-c3ccc(NC4CCNCC4)cc3)cc(O)c12` [Compound 100, 3-Ethyl-1-phenyl-6-[4-(piperidin-4-ylamino)-phenyl]-1H-pyrazolo[3,4-b]pyridin-4-ol] to `Cc1nn(-c2ccccc2)c2nc(-c3ccc(NC4CCNCC4)cc3)cc(O)c12` [Compound 101, 3-Methyl-1-phenyl-6-[4-(piperidin-4-ylamino)-phenyl]-1H-pyrazolo[3,4-b]pyridin-4-ol], the IC50 falls from 1720 nM to 890 nM (1.9-fold).

Compared with `CCOc1cc(-c2ccc(N3CCNCC3)cc2)nc2c1c(CC)nn2-c1ccccc1` [Compound 102, 4-Ethoxy-3-ethyl-1-phenyl-6-(4-piperazin-1-yl-phenyl)-1H-pyrazolo[3,4-b]pyridine], `COc1ccc(-n2nc(SC)c3ccc(N4CCNCC4)cc32)cc1` [Compound 122, 1-(4-Methoxy-phenyl)-3-methylsulfanyl-6-piperazin-1-yl-1H-indazole] is 1.7-fold lower in IC50: 1430 nM for the first, 830 nM for the second.

`COc1ccc(-n2nc(SC)c3ccc(N4CCN(C5CCNCC5)CC4)cc32)cc1` [Compound 106, 1-(4-Methoxy-phenyl)-3-methylsulfanyl-6-(4-piperidin-4-yl-piperazin-1-yl)-1H-indazole] and `CSc1nn(-c2cccc(C)c2)c2cc(N3CCN(C4CCNCC4)CC3)ccc12` [Compound 119, 3-Methylsulfanyl-6-(4-piperidin-4-yl-piperazin-1-yl)-1-m-tolyl-1H-indazole] are within 1.5-fold of each other in IC50: 360 nM for the first, 380 nM for the second.

Going from `CSc1nn(-c2ccccc2)c2cc(OCC3CCNCC3)ccc12` [Compound 107, 3-Methylsulfanyl-1-phenyl-6-(piperidin-4-ylmethoxy)-1H-indazole] to `CSc1nn(-c2ccccc2)c2cc(OC3CCNCC3)ccc12` [Compound 121, 3-Methylsulfanyl-1-phenyl-6-(piperidin-4-yloxy)-1H-indazole], the IC50 rises from 440 nM to 710 nM (1.6-fold).

First: CCN(CC1CCNCC1)c1ccc2c(SC)nn(-c3ccccc3)c2c1 [Compound 108, Ethyl-(3-methylsulfanyl-1-phenyl-1H-indazol-6-yl)-piperidin-4-ylmethyl-amine]
Second: CSc1nn(-c2ccccc2)c2cc(NCC3CCNCC3)ccc12 [Compound 112, (3-Methylsulfanyl-1-phenyl-1H-indazol-6-yl)-piperidin-4-ylmethyl-amine]
The IC50 of the first is 2.1-fold higher: 890 nM for the first, 420 nM for the second. The second is the more potent here.

Going from `CSc1nn(-c2ccccc2)c2cc(NC3CCNCC3)ccc12` [Compound 109, (3-Methylsulfanyl-1-phenyl-1H-indazol-6-yl)-piperidin-4-yl-amine] to `CSc1nn(-c2ccc(N)cc2)c2cc(C(=O)NC3CCNCC3)ccc12` [Compound 111, 1-(4-Amino-phenyl)-3-methylsulfanyl-1H-indazole-6-carboxylic acid piperidin-4-ylamide], the IC50 rises from 770 nM to 2610 nM (3.4-fold).

Compared with `CSc1nn(-c2ccc([N+](=O)[O-])cc2)c2cc(C(=O)NC3CCNCC3)ccc12` [Compound 110, 3-Methylsulfanyl-1-(4-nitro-phenyl)-1H-indazole-6-carboxylic acid piperidin-4-ylamide], `CSc1nn(-c2ccc([N+](=O)[O-])cc2)c2cc(C3=CCNCC3)ccc12` [Compound 124, 3-Methylsulfanyl-1-(4-nitro-phenyl)-6-(1,2,3,6-tetrahydro-pyridin-4-yl)-1H-indazole] is 20-fold lower in IC50: 9830 nM for the first, 490 nM for the second.

Going from `CSc1nn(-c2ccc(N)cc2)c2cc(CN3CCNCC3)ccc12` [Compound 115, 4-(3-Methylsulfanyl-6-piperazin-1-ylmethyl-indazol-1-yl)-phenylamine] to `CSc1nn(-c2ccc(N)cc2)c2cc(C3=CCNCC3)ccc12` [Compound 116, 4-[3-Methylsulfanyl-6-(1,2,3,6-tetrahydro-pyridin-4-yl)-indazol-1-yl]-phenylamine], the IC50 falls from over 51000 nM to 160 nM.

`CSc1nn(-c2cccc(C)c2)c2cc(N3CCNCC3)ccc12` [Compound 118, 3-Methylsulfanyl-6-piperazin-1-yl-1-m-tolyl-1H-indazole] and `CSc1nn(-c2cc(F)cc(F)c2)c2cc(N3CCN(C4CCNCC4)CC3)ccc12` [Compound 126, 1-(3,5-Difluoro-phenyl)-3-methylsulfanyl-6-(4-piperidin-4-yl-piperazin-1-yl)-1H-indazole] are within 1.5-fold of each other in IC50: 4120 nM for the first, 4220 nM for the second.

`CSc1nn(-c2ccc(Br)cc2)c2cc(OCC3CCNCC3)ccc12` [Compound 128, 1-(4-Bromo-phenyl)-3-methylsulfanyl-6-(piperidin-4-ylmethoxy)-1H-indazole] was tested, and the IC50 was 920 nM.
